US20130136836A1, “Taste-Masking Compositions, Sweetener Compositions and Consumable Product Compositions Containing the Same” (Nutrinova Nutrition Specialties & Food Ingredients GmbH, priority 2011, published 2013)

Key:
[1] = system: panel of trained sensory evaluators; test: Taste and spit assay, descriptive taste impression versus base samples, panel of 4 trained sensory evaluators (Examples 3 to 13); assay type: in vivo, human; settings: for further effect added to the composition of the invention: benzaldehyde 0.02 wppm, below its threshold
Description: All tests were conducted under controlled and standardized conditions.
(§1) The samples were prepared by a trained laboratory assistant.
35 ml of the samples were served at room temperature in clear plastic cups.
The following samples comprising a composition of the invention were tested for their ability to improve the taste of artificial sweeteners.
All samples were tested in duplicate and evaluated at least 3 different concentrations in comparison to 3 base samples (samples 1 to 3).
The panelists were asked to evaluate and to describe the taste impression of the samples 4 to 13 containing a sweetener composition comprising acesulfame potassium, sucralose and a composition of the invention, e.g. bitter aftertaste, creaminess, fullness and character of the sweeteners in each case in comparison to the base samples 1 to 3.
The results of the taste and spit assay are based in each case on a qualitative evaluation of the differences between the samples.

[2] = system: panel of trained sensory evaluators; test: Taste and spit assay with regard to sweetness in the aftertaste, panel of 11 trained sensory evaluators (Example 2); assay type: in vivo, human; settings: 11 panelists; 35 ml at 6.0-8.0 °C; after 2 minutes; qualitative comparison of three samples; FIG. 2
Description: Again the panelists are given samples.
Air was constantly exchanged.
as §1
The panel used the sweetness scale anchored by three concentrations of sucrose:
Sweetness was assessed with the 1st sip (max. 30 ml, min of 15 ml) and scored in the aftertaste (after 2 minutes).
All samples were tested in duplicate.

O=Cc1ccccc1 [Benzaldehyde, benzaldehyde]
further effect added to the composition of the invention ([1]; in sample 12 (with naringin, syringaldehyde, massoia lactone, whiskey lactone)): did not add any further effect
further effect added to the composition of the invention ([1]; in sample 13 (with naringin, 4-methoxy salicylaldehyde, lactones, amino acids; sucralose 75 wppm)): did not add any further effect

OC[C@H]1O[C@@](CO)(O[C@H]2O[C@H](CO)[C@@H](O)[C@H](O)[C@H]2O)[C@@H](O)[C@@H]1O [saccharose]
sweetness in the aftertaste [2]: less sweet in the aftertaste than acesulfame potassium and sucralose

delta-undecalactone
taste impression of the lactone in the composition ([1]; delta-undecalactone 0.0388 wppm in Sample 14, replacing massoia lactone, 4 panelists): not being too volatile and as adding a creamy taste, and as improving the total composition
